Assay results from paper PMC12692795, “Design and Synthesis of Structurally Modified Analogs of 24Z-Isomasticadienonic Acid with Enhanced Anti-Proliferative Activity” (Molecules, 2025).
Like-named read-outs stand apart in the source and are kept apart here.

Key:
[1] = system: Z-138 (non-Hodgkin's lymphoma); assay: Antitumoral assay (MTS, 72 h), Z-138; settings: Homo sapiens, Z-138, 72 h, read-out: Cytotoxicity IC50, Z138
Method: (§1) Human cancer cell lines used in this study included Capan-1, HCT-116, NCI-H460, LN-229, HL-60, K-562, and Z-138, all obtained from the American Type Culture Collection (ATCC). The DND-41 cell line was sourced from the Deutsche Sammlung von Mikroorganismen und Zellkulturen (DSMZ). All cell lines were cultured in media obtained from Gibco Life Technologies, supplemented with 10% fetal bovine serum (HyClone, Logan, UT, USA). […] After overnight incubation to allow cell attachment, cells were treated with a seven-point serial dilution of test compounds, ranging from 100 µM to 0.006 µM. Suspension cell lines were seeded as follows: HL-60, K-562, and Z-138 at 2500 cells/well, and DND-41 at 5500 cells/well, using the same compound concentration range. All treatments were performed in 384-well plates under identical conditions. Following 72 h of compound exposure, cell viability was assessed using the CellTiter 96® AQueous One Solution Cell Proliferation Assay (MTS, Promega, Leiden, The Netherlands), following the manufacturer’s protocol. The final assay mixture contained 333 µg/mL MTS and 25 µM phenazine methosulfate (PMS). Absorbance was measured at 490 nm using a SpectraMax Plus 384 microplate reader (Molecular Devices, San Jose, CA, USA). Optical density values were used to calculate the half-maximal inhibitory concentration (IC50) for each compound. All compounds were tested in a minimum of two independent biological replicates to ensure reproducibility.

[2] = system: LN-229 (glioblastoma); assay: Antitumoral assay (MTS, 72 h), LN-229; settings: Homo sapiens, LN-229, 72 h, read-out: Cytotoxicity IC50, LN229
Method: (§2) Human cancer cell lines used in this study included Capan-1, HCT-116, NCI-H460, LN-229, HL-60, K-562, and Z-138, all obtained from the American Type Culture Collection (ATCC). The DND-41 cell line was sourced from the Deutsche Sammlung von Mikroorganismen und Zellkulturen (DSMZ). All cell lines were cultured in media obtained from Gibco Life Technologies, supplemented with 10% fetal bovine serum (HyClone, Logan, UT, USA). Adherent cell lines were seeded in 384-well tissue culture plates at the following densities: Capan-1 at 500 cells/well, and HCT-116, NCI-H460, and LN-229 at 1500 cells/well. After overnight incubation to allow cell attachment, cells were treated with a seven-point serial dilution of test compounds, ranging from 100 µM to 0.006 µM. Suspension cell lines were seeded as follows: HL-60, K-562, and Z-138 at 2500 cells/well, and DND-41 at 5500 cells/well, using the same compound concentration range. All treatments were performed in 384-well plates under identical conditions. Following 72 h of compound exposure, cell viability was assessed using the CellTiter 96® AQueous One Solution Cell Proliferation Assay (MTS, Promega, Leiden, The Netherlands), following the manufacturer’s protocol. The final assay mixture contained 333 µg/mL MTS and 25 µM phenazine methosulfate (PMS). Absorbance was measured at 490 nm using a SpectraMax Plus 384 microplate reader (Molecular Devices, San Jose, CA, USA). Optical density values were used to calculate the half-maximal inhibitory concentration (IC50) for each compound. All compounds were tested in a minimum of two independent biological replicates to ensure reproducibility.

[3] = system: Capan-1 (pancreatic adenocarcinoma); assay: Antitumoral assay (MTS, 72 h), Capan-1; settings: Homo sapiens, CAPAN-1, 72 h, read-out: Cytotoxicity IC50, Capan-1
Method: as §2

[4] = system: panel of human cancer cell lines (Capan-1, HCT-116, LN-229, NCI-H460, DND-41, HL-60, K-562, Z-138)
Method: as §2

[5] = system: HL-60 (acute myeloid leukemia); assay: Antitumoral assay (MTS, 72 h), HL-60; settings: Homo sapiens, HL-60, 72 h, read-out: Cytotoxicity IC50, HL-60
Method: as §1

[6] = system: NCI-H460 (lung carcinoma); assay: Antitumoral assay (MTS, 72 h), NCI-H460; settings: Homo sapiens, NCI-H460, 72 h, read-out: Cytotoxicity IC50, NCl-H460
Method: as §2

[7] = system: K-562 (chronic myeloid leukemia); assay: Antitumoral assay (MTS, 72 h), K-562; settings: Homo sapiens, K562, 72 h, read-out: Cytotoxicity IC50, K562
Method: as §1

[8] = system: DND-41 (acute lymphoblastic leukemia); assay: Antitumoral assay (MTS, 72 h), DND-41; settings: Homo sapiens, DND41, 72 h, read-out: Cytotoxicity IC50, DND-41
Method: as §1

[9] = system: HCT-116 (colorectal carcinoma); assay: Antitumoral assay (MTS, 72 h), HCT-116; settings: Homo sapiens, HCT-116, 72 h, read-out: Cytotoxicity IC50, HCT-116
Method: as §2

[10] = system: panel of human cancer cell lines (Capan-1, HCT-116, LN-229, NCI-H460, DND-41, HL-60, K-562, Z-138); assay: Antitumoral evaluation across the panel of solid and hematological cancer cell lines; settings: 8 cancer cell lines, 72 h, MTS
Method: as §2

[11] = system: peripheral blood mononuclear cells (PBMCs); assay: Cell viability of PBMCs (MTS, 72 h); type: cell-based, Human; settings: 72 h exposure, duplicate
Method: A buffy coat preparation sourced from a healthy donor was acquired from the Blood Transfusion Center in Leuven, Belgium. Peripheral blood mononuclear cells (PBMCs) were separated using density gradient centrifugation over Lymphoprep (density: 1.077 g/mL) from Nycomed. These cells were then cultured in cell culture medium (RPMI, Gibco, Waltham, MA, USA) supplemented with 10% FBS. The PBMCs were seeded at a density of 28,000 cells per well in 384-well tissue culture plates containing the test compounds at concentrations ranging from 50 µM to 3.2 nM (for compounds 3–11 and IMNA) and from 10 µM to 0.6 nM (for etoposide). Following a 72 h incubation period, cell viability was assessed using the MTS cell viability assay. Each compound was evaluated in duplicate.

| Structure (SMILES) | IC50 [1] [µM] | IC50 [2] [µM] | IC50 [3] [µM] | Cytotoxic / antiproliferative profile across the cancer cell line panel (in words) [4] | IC50 [5] [µM] | IC50 [6] [µM] | IC50 [7] [µM] | IC50 [8] [µM] | IC50 [9] [µM] | Cytotoxic / antiproliferative profile across the cancer cell line panel (in words) [10] | Effect on viability of normal PBMCs ([11]; 50 µM) | Toxicity to normal PBMCs ([11]; 10 µM) |
| --- | --- | --- | --- | --- | --- | --- | --- | --- | --- | --- | --- | --- |
| C/C(=C/CC[C@H](C)[C@@H]1CC[C@]2(C)C3=C(CC[C@@]12C)[C@@]1(C)Cc2sc(N4CCOCC4)nc2C(C)(C)[C@@H]1CC3)C(=O)O [Compound 7, (S,Z)-2-Methyl-6-((1S,3aS,5aR,10aS,12aS)-3a,6,6,10a,12a-pentamethyl-8-morpholino-2,3,3a,4,5,5a,6,10,10a,11,12,12a-dodecahydro-1H-cyclopenta[7,8]phenanthro[2,3-d]thiazol-1-yl)hept-2-enoic Acid] | > 50 | > 50 | 26 ± 0.4 | selective cytotoxicity toward Capan-1 | > 50 | > 50 | > 50 | > 50 | > 50 |  |  |  |
| C/C(=C/CC[C@H](C)[C@@H]1CC[C@]2(C)C3=C(CC[C@@]12C)[C@@]1(C)CC(=O)C(C)(C)C1CC3)C(=O)O (some centres unmarked) [Compound 11, 3-One-1(2→3)-abeotirucalla-8,24Z-dien-26-oic Acid] | > 50 | > 50 | 24.6 ± 2.1 |  | 29.6 ± 8.9 | > 50 | > 50 | 49.3 ± 0.8 | > 50 | more limited and restricted cytotoxic profile |  |  |
| C/C(=C/CC[C@H](C)[C@@H]1CC[C@]2(C)C3=C(CC[C@@]12C)[C@@]1(C)CC(SC#N)C(=O)C(C)(C)C1CC3)C(=O)O (mixture of isomers) [Compound 6, 2-Thiocyanate-3-oxotirucalla-8,24Z-dien-26-oic Acid] | 17.9 ± 0.4 | 23.3 ± 2.9 | 7.4 ± 1 | broader antiproliferative activity | 15 ± 1.2 | 21.3 ± 2.3 | 35 ± 3.9 | 18.5 ± 0.7 | 24.3 ± 1.4 |  |  |  |
| C/C(=C/CC[C@H](C)[C@@H]1CC[C@]2(C)C3=C(CC[C@@]12C)[C@@]1(C)CC(Br)C(=O)C(C)(C)C1CC3)C(=O)O (mixture of isomers) [Compound 4, 2-Bromo-3-oxotirucalla-8,24Z-dien-26-oic Acid] | > 50 | 28.5 ± 5.3 | 9.4 ± 1.5 | intermediate activity across multiple cell lines | 14.7 ± 3.3 | 25.1 ± 1.9 | > 50 | 20.5 ± 3.9 | 22 ± 0.8 |  |  |  |
| C/C(=C/CC[C@H](C)[C@@H]1CC[C@]2(C)C3=C(CC[C@@]12C)[C@]1(C)C(CC3)C(C)(C)C(=O)O[C@@H]1O)C(=O)O (stereo partly drawn) [Compound 9, 1α-hydroxy-3-oxa-nor-tirucalla-8,24Z-dien-26-oic acid] | > 50 | > 50 | 39.4 ± 1.5 |  | > 50 | > 50 | > 50 | > 50 | > 50 | selective cytotoxicity toward Capan-1 |  |  |
| C/C(=C/CC[C@H](C)[C@@H]1CC[C@]2(C)C3=C(CC[C@@]12C)[C@@]1(C)Cc2sc(N)nc2C(C)(C)[C@@H]1CC3)C(=O)O [Compound 5, (S,Z)-6-((1S,3aS,5aR,10aS,12aS)-8-Amino-3a,6,6,10a,12a-pentamethyl-2,3,3a,4,5,5a,6,10,10a,11,12,12a-dodecahydro-1H-cyclopenta[7,8]phenanthro[2,3-d]thiazol-1-yl)-2-methylhept-2-enoic Acid] | 25 ± 1.4 | 27.9 ± 2.9 | 23.5 ± 2.4 | intermediate activity across multiple cell lines | 19.5 ± 3.2 | 24.5 ± 7.2 | > 50 | 19 ± 2 | 28.2 ± 1.9 |  |  |  |
| C/C(=C/CC[C@H](C)[C@@H]1CC[C@]2(C)C3=C(CC[C@@]12C)[C@@]1(C)CCC(=O)C(C)(C)C1CC3)C(=O)O (some centres unmarked) [IMNA, 24Z-isomasticadienonic acid] | 32.7 ± 3.2 | > 50 | 26.5 ± 1.6 |  | 21.7 ± 3.1 | > 50 | > 50 | 34.2 ± 2.5 | 42.3 ± 2.3 | intermediate activity across multiple cell lines | none of the analogues (compounds 3–11 and IMNA) decreased the viability |  |
| COc1cc([C@@H]2c3cc4c(cc3[C@@H](O[C@@H]3O[C@@H]5CO[C@@H](C)O[C@H]5[C@H](O)[C@H]3O)[C@H]3COC(=O)[C@H]23)OCO4)cc(OC)c1O [Etoposide, reference compound] | 0.08 ± 0.007 | 4.8 ± 0.87 | 0.24 ± 0.01 |  | 0.3 ± 0.12 | 2.36 ± 0.7 | 4.47 ± 0.11 | 0.08 ± 0.03 | 1.09 ± 0.19 | potent antiproliferative activity against all cancer cell lines |  | did not display toxicity |
| C/C(=C/CC[C@H](C)[C@@H]1CC[C@]2(C)C3=C(CC[C@@]12C)[C@@]1(C)Cc2cnoc2C(C)(C)[C@@H]1CC3)C(=O)O [Compound 3, (S,Z)-2-Methyl-6-((1S,3aS,5aR,10aS,12aS)-3a,6,6,10a,12a-pentamethyl-2,3,3a,4,5,5a,6,10,10a,11,12,12a-dodecahydro-1H-cyclopenta[7,8]phenanthro[3,2-d]isoxazol-1-yl)hept-2-enoic Acid] | > 50 | > 50 | 6.7 ± 0.4 | selective cytotoxicity toward Capan-1 | > 50 | > 50 | > 50 | > 50 | > 50 |  |  |  |
